This is an account of results in PubChem BioAssay AID248 (DTP/NCI, 2004).

Several values for one entry are separate records, joined by “and”; a condition that tells them apart may be missing. Identical values can stand only once. Toxic doses and inconclusive results are not listed.

The subject of this experiment is L1210 leukemia ip in BDF1 mice, survival T/C. The experiment can be described thus: NCI In Vivo Anticancer Drug Screen. Data for tumor model L1210 Leukemia (intraperitoneal) in B6D2F1 (BDF1) mice. Conditions: endpoint: mean survival time, higher = longer survival. In short, it runs like this:
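Transplantable tumor model; survival measured in treated vs vehicle control mice. Value = treated/control.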

The mark [1] stands for this setting: dose: 100.0 mg/kg/injection, schedule: Q01DX009 (ip), vehicle: Klucel (hydroxypropylcellulose) (HPC).
The mark [2] stands for this setting: dose: 200.0 mg/kg/injection, schedule: Q01DX009 (ip), vehicle: Klucel (hydroxypropylcellulose) (HPC).
[3] abbreviates: dose: 100.0 mg/kg/injection, schedule: Q01DX001 (ip), vehicle: carboxymethylcellulose (CMC).
Where [4] appears, read: dose: 200.0 mg/kg/injection, schedule: Q01DX001 (ip), vehicle: carboxymethylcellulose (CMC).
[5] abbreviates: dose: 50.0 mg/kg/injection, schedule: Q01DX009 (ip), vehicle: saline with Tween-80.
[6] abbreviates: dose: 100.0 mg/kg/injection, schedule: Q01DX009 (ip), vehicle: saline with Tween-80.
[7] abbreviates: dose: 200.0 mg/kg/injection, schedule: Q01DX009 (ip), vehicle: saline with Tween-80.
The mark [8] stands for this setting: dose: 400.0 mg/kg/injection, schedule: Q01DX001 (ip), vehicle: saline with Tween-80.
Where [9] appears, read: dose: 100.0 mg/kg/injection, schedule: Q01DX001 (ip), vehicle: saline.
Setting [10] is: dose: 200.0 mg/kg/injection, schedule: Q01DX001 (ip), vehicle: saline.
Setting [11] is: dose: 400.0 mg/kg/injection, schedule: Q01DX001 (ip), vehicle: saline.
[12] abbreviates: dose: 100.0 mg/kg/injection, schedule: Q01DX001 (ip), vehicle: saline with Tween-80.
[13] abbreviates: dose: 200.0 mg/kg/injection, schedule: Q01DX001 (ip), vehicle: saline with Tween-80.
[14] abbreviates: dose: 400.0 mg/kg/injection, schedule: Q01DX009 (ip), vehicle: saline with Tween-80.

As to `COc1cc(OC)c(NC(=O)Nc2ccc([N+](=O)[O-])cc2OC)cc1Cl`, the T/C was 101 % of control under setting [1]; 95 % of control under setting [2]; 97 % of control (dose: 400.0 mg/kg/injection, schedule: Q01DX009 (ip), vehicle: Klucel (hydroxypropylcellulose) (HPC)).

For the compound `CC(=O)CSc1ccccn1`, the T/C was 102 % of control under setting [3]; 94 % of control under setting [4]; 96 % of control (dose: 400.0 mg/kg/injection, schedule: Q01DX001 (ip), vehicle: carboxymethylcellulose (CMC)).

Turning to `O=C(Oc1ccc(N=Nc2ccccc2)c(C(=O)O)c1)Oc1ccc(N=Nc2ccccc2)c(C(=O)O)c1`, the T/C under setting [3] was 101 % of control and the T/C under setting [4] is 98 % of control.

As to `CCC1(C(C)=O)CN2CCc3cc(OC)c(OC)cc3C2N2CCc3ccc(OC)c(OC)c3C21` (stereo unspecified), the T/C by setting is: (dose: 100.0 mg/kg/injection, schedule: Q04DX003 (ip), vehicle: carboxymethylcellulose (CMC)) 95 % of control; (dose: 200.0 mg/kg/injection, schedule: Q04DX003 (ip), vehicle: carboxymethylcellulose (CMC)) 98 % of control; (dose: 400.0 mg/kg/injection, schedule: Q04DX003 (ip), vehicle: carboxymethylcellulose (CMC)) 95 % of control.

For the compound `O=C(CNC(=O)Nc1cccc(Cl)c1)N/N=C/c1cccc([N+](=O)[O-])c1`, the T/C under setting [5] was 98 % of control, the T/C under setting [6] was 95 % of control and the T/C under setting [7] is 98 % of control.

`CC(C)(NC(=O)N(CCCl)N=O)C(=O)O`: the T/C is, setting by setting: (dose: 15.0 mg/kg/injection, schedule: Q01DX001 (ip), vehicle: saline with Tween-80) 103 % of control; (dose: 23.0 mg/kg/injection, schedule: Q01DX001 (ip), vehicle: saline with Tween-80) 115 % of control; (dose: 36.0 mg/kg/injection, schedule: Q01DX001 (ip), vehicle: saline with Tween-80) 119 % of control; (dose: 119.0 mg/kg/injection, schedule: Q01DX001 (ip), vehicle: saline with Tween-80) 227 % of control; (dose: 178.0 mg/kg/injection, schedule: Q01DX001 (ip), vehicle: saline with Tween-80) 339 % of control; (dose: 266.0 mg/kg/injection, schedule: Q01DX001 (ip), vehicle: saline with Tween-80) 123 % of control. In addition, under setting [8], the T/C was 352 % of control.

For the compound `O=[N+]([O-])c1ccc(N=C=C(c2ccccc2)c2ccccc2)cc1`, the T/C by setting is: (dose: 100.0 mg/kg/injection, schedule: Q04DX002 (ip), vehicle: DMSO) 112 % of control; (dose: 200.0 mg/kg/injection, schedule: Q04DX002 (ip), vehicle: DMSO) 91 % of control; (dose: 400.0 mg/kg/injection, schedule: Q04DX002 (ip), vehicle: DMSO) 94 % of control.

As to `S=C1NCCS1`, the T/C is, setting by setting: (dose: 50.0 mg/kg/injection, schedule: Q01DX001 (ip), vehicle: carboxymethylcellulose (CMC)) 113 % of control; (dose: 50.0 mg/kg/injection, schedule: Q01DX009 (ip), vehicle: Klucel (hydroxypropylcellulose) (HPC)) 110 % of control; under setting [3], 102 % of control; under setting [1], 108 % of control; (dose: 100.0 mg/kg/injection, schedule: Q04DX003 (ip), vehicle: Klucel (hydroxypropylcellulose) (HPC)) 108 % of control; under setting [4], 94 % of control. Moreover, the T/C by setting is: under setting [2], 110 % of control; (dose: 200.0 mg/kg/injection, schedule: Q04DX003 (ip), vehicle: Klucel (hydroxypropylcellulose) (HPC)) 113 % of control.

As to `O=S(=O)(/C=C/c1ccccc1)N1CCCCC1`, the T/C runs as follows: under setting [9], 103 % of control; under setting [10], 102 % of control; under setting [11], 102 % of control.

With `O=C(c1ccccc1)c1cc(Cl)ccc1NC(=O)C(Cl)(Cl)Cl`, the T/C by setting is: (dose: 50.0 mg/kg/injection, schedule: Q01DX001 (ip), vehicle: saline with Tween-80) 97 % of control; under setting [12], 102 % of control; under setting [6], 95 % of control and 89 % of control; (dose: 100.0 mg/kg/injection, schedule: Q04DX002 (ip), vehicle: saline with Tween-80) 96 % of control and 104 % of control; under setting [13], 92 % of control; under setting [7], 95 % of control and 89 % of control. Besides, the T/C by setting is: (dose: 200.0 mg/kg/injection, schedule: Q04DX002 (ip), vehicle: saline with Tween-80) 93 % of control and 96 % of control; under setting [8], 91 % of control; under setting [14], 89 % of control and 91 % of control; (dose: 400.0 mg/kg/injection, schedule: Q04DX002 (ip), vehicle: saline with Tween-80) 101 % of control and 89 % of control.

Consider `Nc1nc(N)c(-c2ccc(Cl)c(Cl)c2)c(COc2ccc(CCNS(=O)(=O)c3ccc(S(=O)(=O)F)cc3)cc2)n1`, for which the T/C runs as follows: (dose: 25.0 mg/kg/injection, schedule: Q01DX001 (ip), vehicle: Klucel (hydroxypropylcellulose) (HPC)) 96 % of control; (dose: 50.0 mg/kg/injection, schedule: Q01DX001 (ip), vehicle: Klucel (hydroxypropylcellulose) (HPC)) 102 % of control; (dose: 100.0 mg/kg/injection, schedule: Q01DX001 (ip), vehicle: Klucel (hydroxypropylcellulose) (HPC)) 96 % of control.

For `O=C(O)C1(c2ccc(-c3ccccc3)cc2)CCCCC1`, the T/C reads like this: (dose: 100.0 mg/kg/injection, schedule: Q04DX003 (ip), vehicle: saline with Tween-80) 96 % of control; (dose: 200.0 mg/kg/injection, schedule: Q04DX003 (ip), vehicle: saline with Tween-80) 96 % of control; (dose: 400.0 mg/kg/injection, schedule: Q04DX003 (ip), vehicle: saline with Tween-80) 100 % of control.

As to `CSc1ncc(COP(=S)(OCc2cnc(SC)nc2N)OCc2cnc(SC)nc2N)c(N)n1`, the T/C was 100 % of control (dose: 12.5 mg/kg/injection, schedule: Q04DX003 (ip), vehicle: saline); 103 % of control (dose: 25.0 mg/kg/injection, schedule: Q04DX003 (ip), vehicle: saline); 97 % of control (dose: 50.0 mg/kg/injection, schedule: Q04DX003 (ip), vehicle: saline).

With `C#CC(=O)OC`, the T/C runs as follows: (dose: 0.78 mg/kg/injection, schedule: Q01DX009 (ip), vehicle: saline) 103 % of control; (dose: 1.56 mg/kg/injection, schedule: Q01DX009 (ip), vehicle: saline) 103 % of control; (dose: 1.56 mg/kg/injection, schedule: Q04DX003 (ip), vehicle: saline) 103 % of control; (dose: 3.12 mg/kg/injection, schedule: Q01DX009 (ip), vehicle: saline) 97 % of control; (dose: 3.12 mg/kg/injection, schedule: Q04DX003 (ip), vehicle: saline) 95 % of control; (dose: 4.6 mg/kg/injection, schedule: Q01DX009 (ip), vehicle: saline) 98 % of control. The T/C is 94 % of control (dose: 6.25 mg/kg/injection, schedule: Q04DX003 (ip), vehicle: saline); 93 % of control (dose: 7.0 mg/kg/injection, schedule: Q01DX009 (ip), vehicle: saline); 101 % of control (dose: 10.0 mg/kg/injection, schedule: Q01DX009 (ip), vehicle: saline).

`CCCCCCCNN=C(N)N`: the T/C under setting [9] is 98 % of control; the T/C (dose: 100.0 mg/kg/injection, schedule: Q04DX003 (ip), vehicle: saline) was 111 % of control; the T/C under setting [10] was 98 % of control; the T/C (dose: 200.0 mg/kg/injection, schedule: Q04DX003 (ip), vehicle: saline) was 95 % of control; the T/C under setting [11] is 97 % of control; the T/C (dose: 400.0 mg/kg/injection, schedule: Q04DX003 (ip), vehicle: saline) is 117 % of control.

With `O=C(Nc1ccc(Cl)cc1)O/N=C/c1ccccn1`, the T/C is, setting by setting: (dose: 12.5 mg/kg/injection, schedule: Q01DX009 (ip), vehicle: saline with Tween-80) 111 % of control; (dose: 25.0 mg/kg/injection, schedule: Q01DX009 (ip), vehicle: saline with Tween-80) 97 % of control; under setting [5], 94 % of control; under setting [12], 97 % of control; under setting [13], 109 % of control; under setting [8], 101 % of control. Moreover, the T/C under setting [14] was 88 % of control.
